Data: patent US20190223437A1, “ACTIVE COMPOUND COMBINATIONS COMPRISING A 5-SUBSTITUTED IMIDAZOLE DERIVATIVE” (BAYER CROPSCIENCE AKTIENGESELLSCHAFT, priority 2016, published 2019)
Values joined by “and” are separate entries in the source; they are usually repeats but may differ in a detail not shown here. Equal values may be shown once. Marks after values point to notes of the source that are not given here.

Tests used:
[1] = system: Colletotrichum coccodes; assay: Example B: in vivo preventive test on Colletotrichum test (tomatoes); conditions: compound alone
Method: (§1) The test is evaluated 3 days after the inoculation.

[2] = system: Alternaria solani; assay: Example A: in vivo preventive test on Alternaria test (tomatoes); conditions: compound alone, evaluated 3 days after inoculation
Method: as §1

[3] = system: causal agent of soybean rust (Phakopsora pachyrhizi); assay: Example C: in vivo preventive test on Phakopsora test (soybeans); conditions: compound alone
[4] = Example G: in vivo ecotoxicity screening test on fish (Danio rerio); conditions: Danio rerio, in vivo, other: exposure of embryos in water containing the compound
Method: with ECxi the Effect Concentration (EC) of each chemical i (in ppm) causing x % effect on the ecotoxicity test endpoint.
For each compound combination, the predicted ECx value is calculated. It is then compared to an experimentally measured value. The ratio of predicted versus measured effect for the combination (thereafter called the Model Deviation Ratio or MDR) is then calculated.
The environmental effect of the compound combinations was measured experimentally in laboratory ecotoxicity screening studies with fish (Danio rerio). […] Mortality was recorded after 48 h and 96 h for each tested concentration and a reference control. […] Then, the MDR values were calculated.
This concentrate is then diluted with water to the desired a.i. concentration, leading to a maximal solvent concentration of 0.5%. by weight The compounds alone and the combinations were tested for five increasing concentrations comprised between 0.01 and 1000 ppm (mg/1) a.i., (e.g. 0.1, 1.0, 10 and 100 ppm a.i). For the combinations, compounds A and B were mixed in a weight ratio of 5:1 to 1:5 and five increasing concentrations were tested for each ratio.

[5] = system: Pyrenophora oryzae; assay: Example F: in vitro-Test with Pyrenophora oryzae; assay type: cell-based; conditions: compound alone
[6] = system: causal agent of apple scab (Venturia inaequalis); assay: Example E: in vivo preventive test on Venturia test (apples); conditions: compound alone
[7] = system: Sphaerotheca fuliginea; assay: Example D: in vivo preventive test on Sphaerotheca test (cucumbers); conditions: compound alone
[8] = system: Alternaria alternata; assay: Example F: in vitro-Test with Alternaria alternata; assay type: cell-based; conditions: compound alone, growth inhibition, photometric, 3-5 days after application
[9] = system: Septoria tritici; assay: Example F: in vitro-Test with Septoria tritici; assay type: cell-based; conditions: compound alone
[10] = Measurement of Log P values by HPLC on reversed phase columns (EEC directive 79/831 Annex V.A8); assay type: physicochemical
Method: Measurement of Log P values was performed according to EEC directive 79/831 Annex V.A8 by HPLC (High Performance Liquid Chromatography) on reversed phase columns with the following methods:

N#Cc1c(Cl)c(Cl)c(Cl)c(C#N)c1Cl [5.004 chlorothalonil, chlorothalonil]
Efficacy in % found ([1]; 12.5 ppm a.i.): 0% | Efficacy in % found ([1]; 25 ppm a.i.): 0% | Efficacy in % found ([1]; 50 ppm a.i.): 0% | Efficacy in % found ([2]; 12.5 ppm a.i.): 0% | Efficacy in % found ([2]; 25 ppm a.i.): 0% | Efficacy in % found ([2]; 50 ppm a.i.): 15% | Efficacy in % found ([3]; 12.5 ppm a.i.): 0% | Efficacy in % found ([3]; 25 ppm a.i.): 0% | Efficacy in % found ([3]; 50 ppm a.i.): 30%

CC(C)(C)[C@@H](O)[C@@H](Cc1ccc(Cl)cc1)n1cncn1 (racemic) [Example 1.015, paclobutrazol]
LC50 at 48 h [4]: 99.8 µg/mL | LC50 at 96 h [4]: 56.5 µg/mL

COc1ccnc(C(=O)N[C@H]2COC(=O)[C@H](Cc3ccccc3)[C@@H](OC(=O)C(C)C)[C@H](C)OC2=O)c1OCOC(=O)C(C)C [Example 3.025, (3S,6S,7R,8R)-8-benzyl-3-[({3-[(isobutyryloxy)methoxy]-4-methoxypyridin-2-yl}carbonyl)amino]-6-methyl-4,9-dioxo-1,5-dioxonan-7-yl 2-methylpropanoate]
Efficacy % ([5]; 4 ppm): 0% | Efficacy % ([5]; 20 ppm): 0% | LC50 at 48 h [4]: 2.31 µg/mL | LC50 at 96 h [4]: 1.87 µg/mL | Efficacy in % found ([3]; 5 ppm a.i.): 0% | Efficacy in % found ([3]; 10 ppm a.i.): 30% | Efficacy in % found ([3]; 20 ppm a.i.): 35%

O=C(Cc1ccccc1)N/C(=N\OCC1CC1)c1c(C(F)(F)F)ccc(F)c1F [15.008 cyflufenamid]
Efficacy in % found ([6]; 1 ppm a.i.): 0% | Efficacy in % found ([6]; 2 ppm a.i.): 0% | Efficacy in % found ([6]; 4 ppm a.i.): 8%

Cc1nn(C)c(F)c1C(=O)Nc1ccccc1C(C)CC(C)C (stereo not drawn) [2.017 penflufen]
Efficacy in % found ([6]; 5 ppm a.i.): 18% | Efficacy in % found ([6]; 10 ppm a.i.): 26% | Efficacy in % found ([6]; 20 ppm a.i.): 23% | Efficacy in % found ([3]; 5 ppm a.i.): 0% | Efficacy in % found ([3]; 10 ppm a.i.): 8% | Efficacy in % found ([3]; 20 ppm a.i.): 60%

CCCN(CC)CC1COC2(CCC(C(C)(C)C)CC2)O1 (stereo not drawn) [1.020 spiroxamine, spiroxamine, reference compound]
LC50 at 48 h [4]: 16.5 µg/mL | LC50 at 96 h [4]: 14.8 µg/mL | Efficacy in % found ([7]; 25 ppm a.i.): 0% | Efficacy in % found ([7]; 50 ppm a.i.): 30% | Efficacy in % found ([7]; 100 ppm a.i.): 40% | Efficacy % ([8]; 4 ppm): 13% | Efficacy % ([8]; 20 ppm): 5% | Efficacy % ([8]; 100 ppm): 66%

O=C(Nc1ccccc1)N(Cc1ccc(Cl)cc1)C1CCCC1 [Example 4.005, pencycuron]
LC50 at 48 h [4]: > 200 µg/mL | LC50 at 96 h [4]: > 200 µg/mL

CON=C(C(=O)OC)c1ccccc1CON=C(C)c1cccc(C(F)(F)F)c1 [15.047 trifloxystrobin]
Efficacy % ([5]; 0.04 ppm): 17% | Efficacy % ([5]; 0.2 ppm): 86%

N#Cc1cncn1CC(O)(Cc1ccccc1F)C1(Cl)CC1 (stereo not drawn) [Example I-34, 1-[2-(1-chlorocyclopropyl)-3-(2-fluorophenyl)-2-hydroxypropyl]-1H-imidazole-5-carbonitrile]
Efficacy % ([9]; 0.008 ppm): 0% | Efficacy % ([9]; 0.04 ppm): 28% | Efficacy % ([9]; 0.2 ppm): 59% | Efficacy % ([9]; 1 ppm): 68% | Efficacy in % found ([1]; 1 ppm a.i.): 8% | Efficacy in % found ([1]; 5 ppm a.i.): 60% | Efficacy % ([5]; 0.008 ppm): 0% | Efficacy % ([5]; 0.2 ppm): 0% | LC50 at 48 h [4]: 35.6 µg/mL | LC50 at 96 h [4]: 27.4 µg/mL | Efficacy in % found ([7]; 1 ppm a.i.): 0% | Efficacy in % found ([7]; 5 ppm a.i.): 0% | Efficacy in % found ([2]; 1 ppm a.i.): 15% | Efficacy in % found ([2]; 5 ppm a.i.): 45% | Efficacy in % found ([6]; 1 ppm a.i.): 8% | Efficacy in % found ([6]; 5 ppm a.i.): 66% and 68% | Efficacy in % found ([3]; 1 ppm a.i.): 8% and 0% | Efficacy in % found ([3]; 5 ppm a.i.): 93% and 88%

propineb [5.018 propineb]
Efficacy in % found ([2]; 12.5 ppm a.i.): 0% | Efficacy in % found ([2]; 25 ppm a.i.): 8% | Efficacy in % found ([2]; 50 ppm a.i.): 50% | Efficacy in % found ([3]; 12.5 ppm a.i.): 0% | Efficacy in % found ([3]; 25 ppm a.i.): 0% | Efficacy in % found ([3]; 50 ppm a.i.): 40%

CC(C)c1ccc(Cl)cc1CN(C(=O)c1c(C(F)F)nn(C)c1F)C1CC1 [Example 2.038, N-(5-chloro-2-isopropylbenzyl)-N-cyclopropyl-3-(difluoromethyl)-5-fluoro-1-methyl-1H-pyrazole-4-carboxamide]
LC50 at 48 h [4]: 0.51 µg/mL | LC50 at 96 h [4]: 0.35 µg/mL | Efficacy in % found ([3]; 1 ppm a.i.): 0% | Efficacy in % found ([3]; 2 ppm a.i.): 0% | Efficacy in % found ([3]; 4 ppm a.i.): 0%

CON=C(C(=O)OC)c1ccccc1CON=C(C)c1cccc(C(F)(F)F)c1 [3.020 trifloxystrobin]
Efficacy % ([5]; 0.04 ppm): 0% | Efficacy % ([5]; 0.2 ppm): 0% | Efficacy % ([5]; 1 ppm): 0%

CC(C)C1CCC(Cc2ccc(Cl)cc2)C1(O)Cn1cncn1 (stereo not drawn) [Example 1.012, ipconazole]
LC50 at 48 h [4]: 13.8 µg/mL | LC50 at 96 h [4]: 6.57 µg/mL

O=C(NCCc1ncc(C(F)(F)F)cc1Cl)c1ccccc1C(F)(F)F [2.005 fluopyram]
Efficacy in % found ([3]; 5 ppm a.i.): 0% | Efficacy in % found ([3]; 10 ppm a.i.): 0% | Efficacy in % found ([3]; 20 ppm a.i.): 0%

O=C(Cc1ccccc1)N/C(=N\OCC1CC1)c1c(C(F)(F)F)ccc(F)c1F [Example 15.008, cyflufenamid]
LC50 at 48 h [4]: 9.71 µg/mL | LC50 at 96 h [4]: 5.2 µg/mL

CC(C)(C)C(O)(CCc1ccc(Cl)cc1)Cn1cncn1 (stereo not drawn) [Example 1.021, tebuconazole]
LC50 at 48 h [4]: 19.7 µg/mL | LC50 at 96 h [4]: 19.7 µg/mL

OC(Cc1ccccc1Cl)(Cn1nc[nH]c1=S)C1(Cl)CC1 (stereo not drawn) [Example 1.018, prothioconazole]
LC50 at 48 h [4]: 9.49 µg/mL | LC50 at 96 h [4]: 3.16 µg/mL

CON=C(C(=O)OC)c1ccccc1CON=C(C)c1cccc(C(F)(F)F)c1 [Example 3.020, trifloxystrobin]
LC50 at 48 h [4]: 0.4 µg/mL | LC50 at 96 h [4]: 0.24 µg/mL

mancozeb [5.013 mancozeb]
Efficacy in % found ([1]; 12.5 ppm a.i.): 0% | Efficacy in % found ([1]; 25 ppm a.i.): 0% | Efficacy in % found ([1]; 50 ppm a.i.): 8% | Efficacy % ([8]; 0.8 ppm): 51% | Efficacy % ([8]; 4 ppm): 78% | Efficacy in % found ([2]; 12.5 ppm a.i.): 8% | Efficacy in % found ([2]; 25 ppm a.i.): 10% | Efficacy in % found ([2]; 50 ppm a.i.): 85% | Efficacy in % found ([6]; 5 ppm a.i.): 15% | Efficacy in % found ([6]; 10 ppm a.i.): 49% | Efficacy in % found ([6]; 20 ppm a.i.): 95% | Efficacy in % found ([3]; 12.5 ppm a.i.): 0% | Efficacy in % found ([3]; 25 ppm a.i.): 15% | Efficacy in % found ([3]; 50 ppm a.i.): 80%

N#Cc1c[nH]cc1-c1cccc2c1OC(F)(F)O2 [Example 13.001, fludioxonil]
LC50 at 48 h [4]: 0.91 µg/mL | LC50 at 96 h [4]: 0.89 µg/mL

CC(C)C1CCC(Cc2ccc(Cl)cc2)C1(O)Cn1cncn1 (stereo not drawn) [1.012 ipconazole]
Efficacy in % found ([7]; 2.5 ppm a.i.): 0% | Efficacy in % found ([7]; 5 ppm a.i.): 0% | Efficacy in % found ([7]; 10 ppm a.i.): 0%

CC1CC(C)(C)c2cccc(NC(=O)c3cn(C)nc3C(F)F)c21 (stereo not drawn) [Example 2.027, 3-(difluoromethyl)-1-methyl-N-(1,1,3-trimethyl-2,3-dihydro-1H-inden-4-yl)-1H-pyrazole-4-carboxamide, reference compound]
Efficacy % ([5]; 0.8 ppm): 55% | Efficacy % ([5]; 4 ppm): 81% | LC50 at 48 h [4]: 1.85 µg/mL | LC50 at 96 h [4]: 1.74 µg/mL | Efficacy in % found ([6]; 1 ppm a.i.): 8% | Efficacy in % found ([6]; 2 ppm a.i.): 8% | Efficacy in % found ([6]; 4 ppm a.i.): 74% | Efficacy in % found ([3]; 1 ppm a.i.): 15% | Efficacy in % found ([3]; 2 ppm a.i.): 85% | Efficacy in % found ([3]; 4 ppm a.i.): 96%

N#Cc1cncn1CC(O)(C(F)c1ccccc1Cl)C1(Cl)CC1 (stereo not drawn) [Example I-24]
LogP [10]: 2.82^[a]

N#Cc1cncn1CC(O)(Cc1ccccc1Cl)CC1CC1 (racemic) [Example I-84]
LogP [10]: 2.84^[a]

C#Cc1cncn1CC(O)(Cc1ccccc1Cl)C1(Cl)CC1 (racemic) [Example I-38]
LogP [10]: 2.09^[a]

CC(C)C(O)(Cc1ccccc1Cl)Cn1cncc1C#N (racemic) [Example I-82]
LogP [10]: 2.67^[a]

CC1(C(O)(Cc2ccccc2Cl)Cn2cncc2C#N)CC1 (racemic) [Example I-79]
LogP [10]: 2.87^[a]

N#Cc1cncn1CC(O)(Cc1ccc(Cl)cc1)C1(Cl)CC1 (racemic) [Example I-64]
LogP [10]: 3.10^[a]

CCCOc1nc2ccc(I)cc2c(=O)n1CCC [13.004 proquinazid]
Efficacy % ([9]; 4 ppm): 0% | Efficacy % ([9]; 20 ppm): 37% and 40% | Efficacy in % found ([7]; 25 ppm a.i.): 90% | Efficacy in % found ([7]; 50 ppm a.i.): 100% | Efficacy in % found ([7]; 100 ppm a.i.): 100%

COc1ccccc1CC(O)(Cn1cncc1C#N)C1(Cl)CC1 (racemic) [Example I-55]
LogP [10]: 2.93^[a]

N#Cc1cncn1CC(O)(Cc1ccc(F)cc1)C1(Cl)CC1 (stereo not drawn) [Example I-157]
LogP [10]: 2.75^[a]

N#Cc1cncn1CC(O)(Cc1ccc(F)cc1)C1(Cl)CCC1 (stereo not drawn) [Example I-159]
LogP [10]: 2.98^[a]

OC(Cn1cncc1Cl)(C(F)c1ccccc1Cl)C1(Cl)CC1 (stereo not drawn) [Example I-05]
LogP [10]: 2.17^[a]

OC(Cc1ccc(Cl)cc1F)(Cn1cncc1Cl)C1(Cl)CC1 (single isomer, unassigned) [Example I-113]
LogP [10]: 2.54^[a]
